Patent US20220154204A1, “ENHANCING DROUGHT, SALINITY AND COLD TOLERANCE IN PLANTS AND TREES” (The Regents of the University of California, priority 2019, published 2022)

Assays:
OST1/SnRK2.6 [1] = target: T1, OST1/SnRK2.6 (Arabidopsis thaliana, UniProt Q940H6); assay: In vitro phosphorylation assay of CIAP-dephosphorylated GST-OST1/SnRK2.6 with other protein kinases; format: biochemical; conditions: GST-OST1/SnRK2.6 dephosphorylated by CIAP, [γ-32P]-ATP
T1 construct: made in house; host or cells: E. coli
T1 sequence (Q940H6 1-362): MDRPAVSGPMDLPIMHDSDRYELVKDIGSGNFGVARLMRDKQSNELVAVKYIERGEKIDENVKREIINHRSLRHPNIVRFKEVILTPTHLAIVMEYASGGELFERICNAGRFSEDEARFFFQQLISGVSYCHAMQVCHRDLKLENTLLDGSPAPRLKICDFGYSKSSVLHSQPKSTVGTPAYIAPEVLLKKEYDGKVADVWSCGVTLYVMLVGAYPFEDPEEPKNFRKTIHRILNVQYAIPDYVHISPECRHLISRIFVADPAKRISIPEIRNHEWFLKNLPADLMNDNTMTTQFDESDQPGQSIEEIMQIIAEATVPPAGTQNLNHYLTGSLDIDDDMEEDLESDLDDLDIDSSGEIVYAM
Description: We investigated phosphorylation of purified recombinant GST-tagged OST1/SnRK2.6 protein kinase after dephosphorylation in vitro. To test whether OST1/SnRK2.6 could be re-activated by autophosphorylation, after dephosphorylation, the GST-OST1/SnRK2.6 protein bound on glutathione sepharose 4B resin was incubated with calf intestinal alkaline phosphatase (CIAP), and [γ-^32P]-ATP was added to the reaction after wash out of CIAP. […] Therefore, another unknown protein kinase may be required for reversible ABA signal transduction.
10 μg GST-OST1/SnRK2.6 proteins were bound to glutathione sepharose 4B beads and incubated with 30 U CIAP for 2 hr at room temperature. […]
a, Seeds of amiR-HsMYO wild-type (control line) or amiR-ax1117 mutant were sowed on ½ MS medium containing 2 μM ABA, or 0.02% EtOH as control, for germination assays. Representative images showing seed germination after 6 days. b, The percentage of seedlings showing green cotyledons was analyzed. […] In-gel kinase assays were performed using histone type III-S as a substrate. e, SnRK2 band intensities as shown in (d) were measured using ImageJ, n=3 experiments, error bars show +/−s.e.m. f, Recombinant GST-OST1/SnRK2.6 protein was dephosphorylated by alkaline phosphatase in vitro and used for in vitro phosphorylation assays after incubation with CPK6, CPK23 or MPK12 protein kinases. […]

OST1/SnRK2.6 [2] = assay: In vivo Ser-171 phosphorylation of OST1/SnRK2.6-GFP in mesophyll cell protoplasts by LC-MS/MS; format: cell-based, Arabidopsis; conditions: 20 μM ABA for 15 min vs control
Description: 30 μg GST-OST1/SnRK2.6(D140A) and 2.5 μg GST-M3Kδ1 kinase domain were incubated in phosphorylation buffer (50 mM Tris-HCl pH 7.5, 10 mM MgCl2, 0.1% Triton X-100, and 1 mM DTT) with 1 mM ATP for 2 hr at room temperature. Proteins were precipitated by acetone precipitation and dissolved in SDS-PAGE loading buffer. After SDS-PAGE and CBB staining, protein bands of GST-OST1/SnRK2.6(D140A) were excised and analyzed by LC-MS/MS^17. For in vivo Ser-171 phosphorylation, OST1/SnRK2.6-GFP was transiently expressed in Arabidopsis mesophyll cell protoplasts. The protoplasts were incubated with or without 20 μM ABA for 15 min, and OST1/SnRK2.6 proteins were purified by immunoprecipitation using anti-GFP antibodies. After SDS-PAGE and CBB staining, OST1/SnRK2.6-GFP bands were excised and analyzed by LC-MS/MS^17
a, The sequence of identified phosphorylated peptide by mass spectrometry. OST1/SnRK2.6-GFP was expressed in Arabidopsis mesophyll cell protoplasts and purified by immunoprecipitation with GFP antibodies before or after 20 μM ABA treatment for 15 min. S(+79.97) indicates phosphorylated serine residues. Values (Control and ABA) indicate normalized peak areas for phosphorylated peptides. The phosphorylated peptide was not detected in the control sample.

S-type anion channels = assay: Patch-clamp analyses of S-type anion channel currents in guard cell protoplasts; format: cell-based, Arabidopsis; conditions: 10 μM, guard cells of wildtype (Col-0) and HsMYO control line
Description: Guard cell protoplasts from 4 to 6 week-old Arabidopsis plants were prepared^24,33 ABA-activated S-type anion channel current recordings were carried out by using an Axon 200A amplifier (Axon instruments) and a Digidata 1440A low-noise data acquisition system. Epidermal tissues were isolated from one or two rosette leaves and collected using a nylon mesh (100-μm pore size). […]
S-type anion currents in guard cell protoplasts were recorded using the whole-cell patch-clamp technique^24,33. […]
a, Leaves from m3k amiRNAi and the control amiRNA-HsMYO line (expressing an amiRNA targeting human myosin 2), which has no target gene in Arabidopsis plants were analyzed in time-resolved stomatal conductance analyses in which 1 μM ABA was added to the transpiration stream via the petiole (as described in e.g., Ceciliato, P. et al. Plant Methods 15, doi:10.1186/s13007-019-0423-y (2019)) as indicted by the red arrowhead (n=3 leaves from 3 independent plants per genotype, +/−s.d.). b, Normalized relative stomatal conductance to the first data point shown in (a). c-h, ABA-activated S-type anion channel currents were investigated by patch-clamp analyses using guard cell protoplasts from the wildtype parent Col-0 (c, d), the HsMYO amiRNA control line (e, f), and the m3k amiRNA line (g, h). […]

SLAC1 = assay: Two-electrode voltage clamp recordings of SLAC1 currents in Xenopus oocytes; format: cell-based, Arabidopsis; conditions: Xenopus oocytes co-injected with PYL9/RCAR1, ABI1, OST1/SnRK2.6, SLAC1 with or without M3Ks, 50 μM ABA
Excerpt: The PCR amplified cDNA fragments of OST1, SLAC1, PYL9/RCAR1, ABI1, M3Kδ1, M3Kδ6 and M3Kδ7 were cloned into the oocyte expression vector pNB1 by using an advanced uracil-excision based cloning strategy as previously described^60. The mutant isoforms OST1-S171A, M3Kδ6-K775W and M3Kδ7-K740W were generated using the Quikchange Site-Directed Mutagenesis kit (Agilent Technologies). Linearized plasmids were used to generate cRNAs via the mMESSAGE mMACHINE® T7 kit (Thermo Fisher Scientific, Catalog number: AM1344). […] Steady state currents were recorded with 3 second voltage pulses ranging from +40 mV to −120 mV in −20 mV decrements, followed by a “tail” voltage of −120 mV and the holding potential was kept at 0 mV.
SLAC1-mediated currents in oocytes vary showing either time-dependent relaxation or more instantaneous currents when using a chloride bath solution^61,62. […] To avoid time-of-measurement and inter-batch dependence in the data, H2O-injected control and other indicated controls were included in each batch of oocytes and control experiments were recorded intermittently with the investigated conditions.
a and b, In vitro reconstitution of ABA-induced OST1/SnRK2 activation without M3Kδ6 (a) or with M3Kδ6 (b). […] Phosphorylation of AKS1 is detected by binding of 14-3-3Phi (At1g35160) to the phosphorylated AKS1 protein^15. […]

Row | phosphorylation of OST1/SnRK2.6 after dephosphorylation (OST1/SnRK2.6 [1]) | Molecule | phosphorylation of OST1 Ser171 in mesophyll cells (OST1/SnRK2.6 [2]) | activation of S-type anion currents in guard cells (S-type anion channels) | ABA-dependent SLAC1 anion channel activation (SLAC1)
1 | did not phosphorylate | CPK23: calcium-dependent protein kinase of ABA signalling | – | – | –
2 | – | CC1=CC(=O)CC(C)(C)[C@@]1(O)/C=C/C(C)=C\C(=O)O [ABA, abscisic acid] | clearly phosphorylated | typical ABA activation of S-type anion currents | could activate SLAC1 in oocytes only in the presence of low concentrations of either M3Kδ1, M3Kδ6 or M3Kδ7 mRNAs
